Measured values from the supplement of paper PMC8671470.

Assays:
Conditions in all cases: 72 h
MV4-11 [1] = assay: cell viability (% survival relative to DMSO control, bortezomib = 0%); higher = less cytotoxic
How it was run: (§1)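 Fifteen myeloid leukaemia cell lines were exposed to compounds at 1, 10, 100, 1000 or 10000 nM in 384-well plates for 72 h at 37 °C and 5% CO2. Viability was read by CellTiter-Glo luminescence and normalised, with vehicle as 100% and a 10 µM positive control as 0%. Values are percent survival averaged over duplicates.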

KCL-22 [2] = assay: as above
How it was run: as §1

ML-2 [3] = assay: as above
How it was run: as §1

NOMO-1 [4] = assay: as above
How it was run: as §1

Mono-Mac-6 [5] = assay: as above
How it was run: as §1

HL-60 [6] = assay: as above
How it was run: as §1

BV-173 [7] = assay: as above
How it was run: as §1

KU-812 [8] = assay: as above
How it was run: as §1

THP-1 [9] = assay: as above
How it was run: as §1

LAMA-84 [10] = assay: as above
How it was run: as §1

HEL [11] = assay: as above
How it was run: as §1

K-562 [12] = assay: as above
How it was run: as §1

MOLM-13 [13] = assay: as above
How it was run: as §1

KG-1 [14] = assay: as above
How it was run: as §1

SHI-1 [15] = assay: as above
How it was run: as §1

MV4-11 [16] = test system: MV4-11
How it was run: (§2)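 Fifteen myeloid leukaemia lines were incubated for 72 h at 37 °C with 5% CO2 across five tenfold doses from 1 to 10,000 nM, in duplicate. ATP luminescence was normalised to vehicle and to a positive control at 10 µM and fitted with a four-parameter log-logistic model. The IC50 came from these dose–response fits.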

KCL-22 [17] = test system: KCL-22
How it was run: as §2

ML-2 [18] = test system: ML-2
How it was run: as §2

NOMO-1 [19] = test system: NOMO-1
How it was run: as §2

Mono-Mac-6 [20] = test system: Mono-Mac-6
How it was run: as §2

HL-60 [21] = test system: HL-60
How it was run: as §2

BV-173 [22] = test system: BV-173
How it was run: as §2

KU-812 [23] = test system: KU-812
How it was run: as §2

THP-1 [24] = test system: THP-1
How it was run: as §2

LAMA-84 [25] = test system: LAMA-84
How it was run: as §2

HEL [26] = test system: HEL
How it was run: as §2

K-562 [27] = test system: K-562
How it was run: as §2

MOLM-13 [28] = test system: MOLM-13
How it was run: as §2

KG-1 [29] = test system: KG-1
How it was run: as §2

SHI-1 [30] = test system: SHI-1
How it was run: as §2

c1cc(-c2cnn3cc(-c4ccc(OCCN5CCCCC5)cc4)cnc23)ccn1 [Dorsomorphin]
cell viability [%]
Conditions | 1 nM | 10 nM | 100 nM | 1000 nM | 10000 nM
BV-173 [7] | 89.8 | 108 | 99.9 | 90.1 | 53.2
HEL [11] | 87.1 | 105 | 99.4 | 103 | 72.6
HL-60 [6] | 113 | 110 | 94.9 | 97.1 | 93.9
K-562 [12] | 94.2 | 97.4 | 93.3 | 92.1 | 93.5
KCL-22 [2] | 108 | 106 | 102 | 94.6 | 37.7
KG-1 [14] | 94.4 | 117 | 98.8 | 99.8 | 50.8
KU-812 [8] | 91.9 | 97.1 | 97.2 | 85.9 | 1.77
LAMA-84 [10] | 96.4 | 98.8 | 96.5 | 96.1 | 28.8
ML-2 [3] | 95.2 | 113 | 96.7 | 88.3 | 44.1
MOLM-13 [13] | 77.6 | 78.5 | 97.5 | 108 | 97.8
MV4-11 [1] | 89.9 | 117 | 97.4 | 99.8 | 89.1
Mono-Mac-6 [5] | 95.3 | 101 | 103 | 42.8 | 6.23
NOMO-1 [4] | 93.2 | 105 | 98.8 | 92.7 | 48.5
SHI-1 [15] | 104 | 102 | 95.6 | 103 | 113
THP-1 [9] | 94.5 | 101 | 101 | 96.2 | 55.6

Conditions | IC50 (cell viability) [µM]
BV-173 [22] | 7.28
HEL [26] | > 10
HL-60 [21] | > 10
K-562 [27] | > 10
KCL-22 [17] | 6.79
KG-1 [29] | > 10
KU-812 [23] | 2.6
LAMA-84 [25] | 6.49
ML-2 [18] | 5.24
MOLM-13 [28] | > 10
MV4-11 [16] | > 10
Mono-Mac-6 [20] | 0.811
NOMO-1 [19] | 6.43
SHI-1 [30] | > 10
THP-1 [24] | > 10

C[C@H]1c2cccc(O)c2C(=O)C2C(=O)[C@]3(O)C(=O)C(C(N)=O)C(=O)[C@@H](N(C)C)[C@@H]3[C@@H](O)[C@@H]21 (stereo not given in full) [Doxycycline]
cell viability [%]
Conditions | 1 nM | 10 nM | 100 nM | 1000 nM | 10000 nM
BV-173 [7] | 107 | 87.9 | 99.2 | 102 | 69.7
HEL [11] | 120 | 107 | 90.5 | 108 | 75.3
HL-60 [6] | 123 | 100 | 118 | 111 | 67.4
K-562 [12] | 112 | 97 | 97.3 | 101 | 46.2
KCL-22 [2] | 130 | 69.3 | 93.6 | 109 | 41.6
KG-1 [14] | 106 | 91.7 | 95.9 | 95.1 | 87.9
KU-812 [8] | 111 | 88.3 | 105 | 102 | 74.4
LAMA-84 [10] | 101 | 95.3 | 106 | 92 | 66.1
ML-2 [3] | 111 | 103 | 97.9 | 90 | 45.9
MOLM-13 [13] | 124 | 114 | 92.7 | 104 | 74.5
MV4-11 [1] | 110 | 105 | 94.2 | 97 | 50.9
Mono-Mac-6 [5] | 103 | 98.6 | 109 | 94.7 | 90.4
NOMO-1 [4] | 103 | 92 | 104 | 103 | 90.3
SHI-1 [15] | 111 | 98 | 112 | 105 | 90.8
THP-1 [9] | 95 | 95.9 | 100 | 105 | 106

Conditions | IC50 (cell viability) [µM]
BV-173 [22] | > 10
HEL [26] | > 10
HL-60 [21] | > 10
K-562 [27] | 9.29
KCL-22 [17] | 8.54
KG-1 [29] | > 10
KU-812 [23] | > 10
LAMA-84 [25] | > 10
ML-2 [18] | 8.51
MOLM-13 [28] | > 10
MV4-11 [16] | > 10
Mono-Mac-6 [20] | > 10
NOMO-1 [19] | > 10
SHI-1 [30] | > 10
THP-1 [24] | > 10

OC[C@H]1NC[C@H](O)[C@@H](O)[C@@H]1O [Duvoglustat]
cell viability [%]
Conditions | 1 nM | 10 nM | 100 nM | 1000 nM | 10000 nM
BV-173 [7] | 96.5 | 85.3 | 104 | 75.6 | 96.5
HEL [11] | 94.5 | 122 | 99.8 | 94.4 | 103
HL-60 [6] | 90.1 | 180 | 113 | 81 | 125
K-562 [12] | 90.3 | 94.7 | 100 | 88.2 | 105
KCL-22 [2] | 90.5 | 120 | 107 | 87 | 104
KG-1 [14] | 96.4 | 111 | 108 | 87.3 | 101
KU-812 [8] | 84.9 | 99.8 | 92.5 | 94.5 | 103
LAMA-84 [10] | 84.3 | 98 | 106 | 88.3 | 106
ML-2 [3] | 95.4 | 121 | 117 | 84.9 | 106
MOLM-13 [13] | 79.3 | 127 | 104 | 83.3 | 102
MV4-11 [1] | 93.3 | 108 | 92.8 | 92.6 | 113
Mono-Mac-6 [5] | 102 | 107 | 105 | 78.9 | 104
NOMO-1 [4] | 95.8 | 101 | 99.5 | 83.4 | 105
SHI-1 [15] | 103 | 121 | 109 | 88 | 108
THP-1 [9] | 96.6 | 92.3 | 109 | 84.6 | 101

Conditions | IC50 (cell viability) [µM]
BV-173 [22] | > 10
HEL [26] | > 10
HL-60 [21] | > 10
K-562 [27] | > 10
KCL-22 [17] | > 10
KG-1 [29] | > 10
KU-812 [23] | > 10
LAMA-84 [25] | > 10
ML-2 [18] | > 10
MOLM-13 [28] | > 10
MV4-11 [16] | > 10
Mono-Mac-6 [20] | > 10
NOMO-1 [19] | > 10
SHI-1 [30] | > 10
THP-1 [24] | > 10
